Test results reported in ChEMBL document CHEMBL4325862, “Identification of novel quinazoline derivatives as potent antiplasmodial agents” (Eur J Med Chem, 2019).

Assays:
[1] = biological target: DNA (cytosine-5)-methyltransferase 3A (Homo sapiens, UniProt Q9Y6K1); test: Inhibition of recombinant human DNMT3a C-terminal catalytic domain (623 to 908 residues) using 5'-biotinylated/3'-FAM-oligonucleotide as substrate measured after 1 hr in presence of Adomet by fluorescence assay
Plasmodium falciparum [2] = test: Antiplasmodial activity against asynchronous form of Plasmodium falciparum 3D7 infected in human erythrocytes assessed as parasite growth inhibition at 10 uM after 48 hrs by SYBR green1 staining based flow cytometry relative to control; format: functional; details: 3D7, 48 h
Plasmodium falciparum [3] = test: Antiplasmodial activity against asynchronous form of Plasmodium falciparum 3D7 infected in human erythrocytes assessed as parasite growth inhibition after 48 hrs by SYBR green1 staining based flow cytometry; format: functional, organism-based; details: 3D7, 48 h
[4] = biological target: DNA (cytosine-5)-methyltransferase 1 (Homo sapiens, UniProt P26358); test: Inhibition of recombinant human DNMT1 using biotinylated DNA duplex as substrate measured after 2 hrs in presence of Adomet/[methyl-3H]Adomet by topcount method
Chain of DNA (cytosine-5)-methyltransferase 1 (P26358 whole entry): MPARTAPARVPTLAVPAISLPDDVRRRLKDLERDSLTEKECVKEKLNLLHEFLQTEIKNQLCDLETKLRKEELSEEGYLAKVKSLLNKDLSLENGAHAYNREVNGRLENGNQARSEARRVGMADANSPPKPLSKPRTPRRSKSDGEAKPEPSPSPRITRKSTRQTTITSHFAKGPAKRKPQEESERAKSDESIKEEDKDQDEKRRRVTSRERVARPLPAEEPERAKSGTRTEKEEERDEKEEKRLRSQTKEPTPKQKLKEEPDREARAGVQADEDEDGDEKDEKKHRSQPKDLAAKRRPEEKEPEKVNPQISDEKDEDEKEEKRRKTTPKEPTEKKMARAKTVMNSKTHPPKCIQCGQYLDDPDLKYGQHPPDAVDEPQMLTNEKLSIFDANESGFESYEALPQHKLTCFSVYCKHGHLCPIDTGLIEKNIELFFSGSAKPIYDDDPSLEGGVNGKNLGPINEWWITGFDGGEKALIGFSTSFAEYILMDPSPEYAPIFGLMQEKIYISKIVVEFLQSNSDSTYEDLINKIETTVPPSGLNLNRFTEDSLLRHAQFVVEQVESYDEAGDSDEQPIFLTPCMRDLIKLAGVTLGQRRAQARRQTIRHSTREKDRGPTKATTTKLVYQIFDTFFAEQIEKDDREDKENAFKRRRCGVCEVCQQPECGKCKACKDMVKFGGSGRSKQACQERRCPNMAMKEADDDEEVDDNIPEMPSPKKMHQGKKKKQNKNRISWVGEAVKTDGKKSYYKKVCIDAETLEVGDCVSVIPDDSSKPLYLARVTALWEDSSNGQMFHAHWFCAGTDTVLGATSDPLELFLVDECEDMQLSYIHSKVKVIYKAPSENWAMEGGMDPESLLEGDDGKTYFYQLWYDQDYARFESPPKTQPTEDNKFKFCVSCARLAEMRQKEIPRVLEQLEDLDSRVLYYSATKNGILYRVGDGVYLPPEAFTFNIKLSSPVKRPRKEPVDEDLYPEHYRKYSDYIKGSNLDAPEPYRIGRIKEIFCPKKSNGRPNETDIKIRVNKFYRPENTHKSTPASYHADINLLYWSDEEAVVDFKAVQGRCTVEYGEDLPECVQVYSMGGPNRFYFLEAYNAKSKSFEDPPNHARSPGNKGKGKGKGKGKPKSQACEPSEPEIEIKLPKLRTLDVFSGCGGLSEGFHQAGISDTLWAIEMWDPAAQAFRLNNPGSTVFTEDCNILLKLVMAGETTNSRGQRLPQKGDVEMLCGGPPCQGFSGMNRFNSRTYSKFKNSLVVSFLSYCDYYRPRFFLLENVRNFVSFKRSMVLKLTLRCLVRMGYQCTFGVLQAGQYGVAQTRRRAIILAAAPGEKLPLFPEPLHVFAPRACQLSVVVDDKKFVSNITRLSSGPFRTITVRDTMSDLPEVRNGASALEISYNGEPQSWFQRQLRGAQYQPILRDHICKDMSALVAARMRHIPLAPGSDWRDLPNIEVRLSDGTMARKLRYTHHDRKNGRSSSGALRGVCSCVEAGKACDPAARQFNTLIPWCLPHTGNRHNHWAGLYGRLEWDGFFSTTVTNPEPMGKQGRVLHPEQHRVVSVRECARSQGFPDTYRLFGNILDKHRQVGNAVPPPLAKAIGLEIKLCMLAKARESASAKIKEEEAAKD

Chain of DNA (cytosine-5)-methyltransferase 3A (Q9Y6K1 whole entry, looked up, the tested form may be a part): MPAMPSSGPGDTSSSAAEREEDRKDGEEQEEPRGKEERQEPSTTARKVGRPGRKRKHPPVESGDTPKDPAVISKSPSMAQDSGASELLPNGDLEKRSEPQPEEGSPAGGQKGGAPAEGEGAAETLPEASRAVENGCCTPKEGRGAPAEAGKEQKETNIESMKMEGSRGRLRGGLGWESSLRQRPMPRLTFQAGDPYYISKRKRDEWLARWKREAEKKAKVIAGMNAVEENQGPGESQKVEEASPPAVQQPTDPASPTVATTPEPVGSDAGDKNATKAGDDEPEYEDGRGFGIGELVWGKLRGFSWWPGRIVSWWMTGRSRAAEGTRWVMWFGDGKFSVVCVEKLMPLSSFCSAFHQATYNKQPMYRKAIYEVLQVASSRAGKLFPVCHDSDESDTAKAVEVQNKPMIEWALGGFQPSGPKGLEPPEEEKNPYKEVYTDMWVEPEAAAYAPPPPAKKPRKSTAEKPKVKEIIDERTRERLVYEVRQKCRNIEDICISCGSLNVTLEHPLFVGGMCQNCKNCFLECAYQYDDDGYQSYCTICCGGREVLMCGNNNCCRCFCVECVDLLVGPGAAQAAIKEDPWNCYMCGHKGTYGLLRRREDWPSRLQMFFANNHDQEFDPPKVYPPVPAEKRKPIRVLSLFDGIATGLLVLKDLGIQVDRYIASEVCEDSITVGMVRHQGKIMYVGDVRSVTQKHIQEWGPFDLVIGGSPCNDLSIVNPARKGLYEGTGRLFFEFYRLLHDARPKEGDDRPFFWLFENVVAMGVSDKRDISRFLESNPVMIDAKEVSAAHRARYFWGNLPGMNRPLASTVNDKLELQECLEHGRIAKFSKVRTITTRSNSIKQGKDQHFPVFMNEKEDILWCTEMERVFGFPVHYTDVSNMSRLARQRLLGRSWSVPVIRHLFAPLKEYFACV

Row | SMILES | EC50 [1] [µM] | inhibition at 10 µM (Plasmodium falciparum [2]) [%] | IC50 (Plasmodium falciparum [3]) [µM] | EC50 [4] [µM]
1 | COc1ccc2c(NC3CCN(Cc4ccccc4)CC3)nc(N3CCN(c4ccccc4)CC3)nc2c1 | 4.6 | 100 | 0.083 | > 100
2 | COc1cc2nc(N3CCN(c4ccccc4)CC3)nc(NC3CCN(Cc4ccccc4)CC3)c2cc1OC | 5.4 | 100 | 0.0378 | > 100
3 | NC1CC1c1ccc(NC(=O)c2ccc(-c3ccccc3)cc2)cc1 (stereo not given) |  | 97.5 | > 1 | 
4 | O=C(/C=C/c1ccccc1CSc1nc(O)cc(-c2ccccc2)n1)NO |  | 2.8 |  | 
5 | O=C1/C(=C/c2ccc(O)c(Br)c2)CN(Cc2ccccc2)C/C1=C\c1ccc(O)c(Br)c1 |  | 100 | > 1 | 
6 | BrCCCc1nc(-c2ccc(Br)cc2)no1 |  | 18.7 |  | 
7 | COc1ccc2nc(N3CCN(c4ccccc4)CC3)nc(NC3CCN(Cc4ccccc4)CC3)c2c1 | 5.4 | 100 | 0.0525 | > 100
8 | NC1CC1c1ccc(NC(=O)CCCCCNC(=O)c2ccc(O)c3ncccc23)cc1 (stereo not given) |  | 96.7 | > 1 | 
9 | O=c1nc2oc3ccc4ccccc4c3cc-2c(=O)n1-c1ccccc1 |  | 80.5 | > 1 | 
10 | CC(C(=O)Nc1cccc(/N=C/c2c(O)ccc3ccccc23)c1)c1ccccc1 (stereo not given) [SALERMIDE] |  | 72.3 | > 1 | 
11 | Nc1ccccc1NC(=O)c1ccc(CNC(=O)OCc2cccnc2)cc1 [ENTINOSTAT] |  | 50.9 | > 1 | 
12 | c1ccc(CN2CCC(Nc3nc(N4CCN(c5ccccc5)CC4)nc4ccccc34)CC2)cc1 |  | 100 | 0.326 | 
13 | O=C1/C(=C/c2ccc(O)c(Br)c2)CSC/C1=C\c1ccc(O)c(Br)c1 |  | 99.5 | 0.952 | 
14 | NC1CC1c1ccc(NC(=O)c2ccc(O)c3ncccc23)cc1 (stereo not given) |  | 98.9 to 100 | 0.776 to 1 | 
15 | O=C(CCCCSc1nc(-c2ccc(Cl)cc2)cc(=O)[nH]1)NO |  | 98 | 0.0886 | 
16 | CC(C)N(CCCNC(=O)Nc1ccc(C(C)(C)C)cc1)C[C@H]1O[C@@H](n2cnc3c(N)ncnc32)[C@H](O)[C@@H]1O |  | 9.7 |  | 

Row | SMILES | EC50 [1] [µM] | inhibition at 10 µM (Plasmodium falciparum [2]) [%] | IC50 (Plasmodium falciparum [3]) [µM] | EC50 [4] [µM]
17 | Cn1c(/C=C/C(=O)NO)ccc1/C=C/C(=O)c1cccc(Cl)c1 |  | 89.6 | > 1 | 
18 | NC1CC1c1ccc(NC(=O)CCCNC(=O)c2ccc(O)c3ncccc23)cc1 (stereo not given) |  | 45.3 |  | 
19 | O=C(O)c1ccc(O)c2ncccc12 |  | 25.4 |  | 
20 | CCOC(=O)C1=CN(Cc2ccccc2)C=C(C(=O)OCC)C1c1ccccc1 |  | 97.2 | > 1 | 
21 | O=C(/C=C/c1ccc(Cc2nnc(Cc3cccc4ccccc34)o2)cc1)NO |  | 98 | 0.244 | 
22 | O=c1[nH]c(SCCN2CCN(c3ccccn3)CC2)nc2ccccc12 |  | 2 |  | 
23 | CCOC(=O)c1c(C)nc2ccccc2c1O |  | 60.1 | > 1 | 
24 | NC1CC1c1ccc(NC(=O)[C@H](Cc2ccccc2)NC(=O)OCc2ccccc2)cc1 (stereo not given in full) |  | 64.6 | > 1 | 
25 | CC(C)(C)OC(=O)Nc1cccc(C(=O)/C=C/c2ccc(/C=C/C(=O)NO)cc2)c1 |  | 100 | 0.422 | 
26 | CCCCCCCCCCCCCCC=C(C(=O)OCC)C(=O)OCC |  | 92.7 | > 1 | 
27 | O=S(=O)(c1cccc(C(F)(F)F)c1)N1c2ccccc2-n2cccc2C1c1cccnc1 (stereo not given) |  | 99.5 | 0.671 | 
28 | CC1=C(/C=C/C(C)=C/C=C/C(C)=C/C(=O)Nc2ccccc2N)C(C)(C)CCC1 |  | 97.1 | > 1 | 
29 | CC1=NN(c2ccc(C(=O)O)cc2)C(=O)/C1=C\c1ccc(-c2cc(C)c(C)cc2[N+](=O)[O-])o1 |  | 12.8 |  | 
30 | NC1CC1c1ccc(NC(=O)CCCCNC(=O)c2ccc(O)c3ncccc23)cc1 (stereo not given) |  | 97.8 | > 1 | 
31 | Cc1cc(C)c(CNC(=O)c2cnn(-c3ccccc3)c2C)c(=O)[nH]1 |  | 14.7 |  | 
